This note sets out measurements from ChEMBL document CHEMBL5365468, “Discovery of a novel series of medium-sized cyclic enteropeptidase inhibitors” (Bioorg Med Chem, 2023).

Series [1] addresses T1, Enteropeptidase (Homo sapiens, UniProt P98073). The series is described as follows: Inhibition of human recombinant enteropeptidase using 5FAM-Abu-Gly-Asp-Asp-Asp-Lys-Ile-Val-Gly-Gly-Lys(CPQ2)-Lys-Lys-NH2 as substrate incubated for 120 mins by fluorescence plate reader analysis.
The target in series [2] is T1, Enteropeptidase. In words: Inhibition of human recombinant enteropeptidase using 5FAM-Abu-Gly-Asp-Asp-Asp-Lys-Ile-Val-Gly-Gly-Lys(CPQ2)-Lys-Lys-NH2 as substrate incubated for 6 mins by fluorescence plate reader analysis.
Series [3] can be described thus: Oral bioavailability in rat assessed as ratio of dose normalized oral AUC to intravenous AUC at 10 mg/kg by LC-MS/MS analysis. The series is classed as ADME, organism-based. The note with it: in vivo.
Series [4] is described as follows: Drug absorption in mouse intestine assessed as fraction of drug absorbed into portal vein at 10 mg/kg, po by LC-MS/MS analysis. The series is classed as ADME, organism-based. The note with it: in vivo.
The target of series [5] is T1, Enteropeptidase. In words: Inhibition of human recombinant enteropeptidase using 5FAM-Abu-Gly-Asp-Asp-Asp-Lys-Ile-Val-Gly-Gly-Lys(CPQ2)-Lys-Lys-NH2 as substrate assessed as dissociation half life preincubated with compound for 2 hrs followed by substrate addition and measured every 2 mins by fluorescence based analysis.
The nature of series [6]: Drug metabolism in Sprague-Dawley rat assessed as open-ring type hydrolyzed metabolite formation in plasma at 100 mg/kg, po by LC-MS/MS analysis. The series is classed as ADME, organism-based. The note with it: in vivo.
A short description of series [7]: In vivo inhibition of enteropeptidase in D12079B diet-induced obese C57BL/6J mouse model assessed as fold increase in fecal protein output at 10 mg/kg, po measured overnight relative to N-({4-[(4-carbamimidamidobenzoyl)oxy]phenyl}acetyl)-L-aspartic acid hydrochloride. The series is classed as functional.
Series [8] in a line: Drug absorption in dog intestine assessed as fraction of drug absorbed into portal vein at 1 mg/kg, po by LC-MS/MS analysis. The series is classed as ADME, organism-based, Canis lupus familiaris. The note with it: in vivo.
Series [9] in a line: Oral bioavailability in mouse assessed as ratio of dose normalized oral AUC to intravenous AUC at 10 mg/kg by LC-MS/MS analysis. The series is classed as ADME, organism-based. The note with it: in vivo.
A short description of series [10]: Oral bioavailability in dog assessed as ratio of dose normalized oral AUC to intravenous AUC at 1 mg/kg by LC-MS/MS analysis. The series is classed as ADME, organism-based, Canis lupus familiaris. The note with it: in vivo.
Series [11] can be described thus: Drug absorption in monkey intestine assessed as fraction of drug absorbed into portal vein at 1 mg/kg, po by LC-MS/MS analysis. The series is classed as ADME, organism-based, Macaca mulatta. The note with it: rhesus monkey, in vivo.
Series [12] can be described thus: Oral bioavailability in monkey assessed as ratio of dose normalized oral AUC to intravenous AUC at 1 mg/kg by LC-MS/MS analysis. The series is classed as ADME, organism-based, Macaca mulatta. The note with it: rhesus monkey, in vivo.
Series [13] in a line: Drug absorption in rat intestine assessed as fraction of drug absorbed into portal vein at 10 mg/kg, po by LC-MS/MS analysis. The series is classed as ADME, organism-based. The note with it: in vivo.
A short description of series [14]: Inhibition of rat recombinant enteropeptidase catalytic domain (818 to 1057 residues) using 5FAM-Abu-Gly-Asp-Asp-Asp-Lys-Ile-Val-Gly-Gly-Lys(CPQ2)-Lys-Lys-NH2 as substrate incubated for 120 mins by fluorescence plate reader analysis.
Series [15] in a line: Stability of the compound at pH 1.2 assessed as drug decomposition at 10 ug/ml incubated for 24 hrs by HPLC analysis. The series is classed as physicochemical. The note with it: buffer, at 10 µg/mL, read-out: Drug degradation.
Series [16] can be described thus: Stability of the compound at pH 6.8 assessed as drug decomposition at 10 ug/ml incubated for 24 hrs by HPLC analysis. The note with it: buffer, at 10 µg/mL, read-out: Drug degradation. The series is classed as physicochemical.

For orientation: IC50 means the concentration at which inhibition is half-maximal. A word on the bioavailability: it is dose-corrected exposure relative to a reference, in per cent.

T1 sequence (P98073 2-784 limits assumed): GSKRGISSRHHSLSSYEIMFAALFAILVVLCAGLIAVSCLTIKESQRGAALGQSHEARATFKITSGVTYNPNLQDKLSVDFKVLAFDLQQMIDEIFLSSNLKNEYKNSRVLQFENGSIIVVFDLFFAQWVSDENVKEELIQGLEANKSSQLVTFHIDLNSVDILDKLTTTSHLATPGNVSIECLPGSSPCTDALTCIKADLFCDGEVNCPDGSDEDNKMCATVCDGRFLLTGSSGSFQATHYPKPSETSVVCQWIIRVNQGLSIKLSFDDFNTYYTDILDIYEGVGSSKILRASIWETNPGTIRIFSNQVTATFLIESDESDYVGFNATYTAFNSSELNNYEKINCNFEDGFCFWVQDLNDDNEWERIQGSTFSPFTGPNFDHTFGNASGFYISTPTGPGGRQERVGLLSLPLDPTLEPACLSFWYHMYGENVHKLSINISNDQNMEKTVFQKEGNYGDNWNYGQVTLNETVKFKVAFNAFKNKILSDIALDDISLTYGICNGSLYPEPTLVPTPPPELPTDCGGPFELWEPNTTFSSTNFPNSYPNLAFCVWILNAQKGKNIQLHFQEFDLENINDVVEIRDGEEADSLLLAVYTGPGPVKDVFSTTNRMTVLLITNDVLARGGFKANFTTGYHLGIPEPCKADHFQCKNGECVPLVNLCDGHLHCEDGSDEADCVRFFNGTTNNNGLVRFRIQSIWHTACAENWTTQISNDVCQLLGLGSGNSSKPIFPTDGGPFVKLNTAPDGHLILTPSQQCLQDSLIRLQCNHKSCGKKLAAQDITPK
T1 sequence (P98073 785-1019 limits assumed): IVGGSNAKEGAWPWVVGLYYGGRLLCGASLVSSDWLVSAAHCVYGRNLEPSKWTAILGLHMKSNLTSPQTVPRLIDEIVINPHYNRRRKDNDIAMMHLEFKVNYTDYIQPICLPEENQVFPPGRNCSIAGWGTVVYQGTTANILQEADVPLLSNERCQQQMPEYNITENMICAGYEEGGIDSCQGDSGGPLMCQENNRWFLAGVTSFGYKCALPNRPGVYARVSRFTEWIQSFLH

Turning to `N=C(N)Nc1ccc2c(c1)CCCc1c(cccc1C(=O)N[C@@H](CC(=O)O)C(=O)O)OC2=O`, the results for the IC50 on Enteropeptidase [1] and on Enteropeptidase [2] were 22 nM and 430 nM, respectively.

`N=C(N)Nc1ccc2c(c1)CCCCCCc1c(cccc1C(=O)N[C@@H](CC(=O)O)C(=O)O)OC2=O`: the values for the IC50 at Enteropeptidase [1] and at Enteropeptidase [2] were 81 nM and 2500 nM, respectively.

Take `N=C(N)Nc1ccc2c(c1)CCCOc1c(cccc1C(=O)N[C@@H](CC(=O)O)C(=O)O)OC2=O`: the bioavailability in [3] was 1%; in series [9], 1.1%; in series [10], 2.8%; in [12], 0.3%. Further, the results for the IC50 (on Enteropeptidase [1]; on Enteropeptidase [2]; in [14]) were 0.41 nM, 9.4 nM and 0.62 nM, respectively. Besides, the FaFg in [4] is listed as 1.9%; in series [8], 3.4%; in series [11], 0.3%; in series [13], 1.2%. At Enteropeptidase [5], the T1/2 is > 2 h. The Drug metabolism entry in series [6] is given as “Metabolite_Detected”. In addition, in [7], the “fold change (FC)” value was 1.72.

Consider `N=C(N)Nc1ccc2c(c1)OCCCc1c(cccc1C(=O)N[C@@H](CC(=O)O)C(=O)O)OC2=O`, for which the half-maximal inhibitory concentration (IC50) at Enteropeptidase [1] turned out to be 0.69 nM; on Enteropeptidase [2], 8.7 nM. For the same molecule, the T1/2 on Enteropeptidase [5] amounted to 0.27 h.

Take `Cc1ccc(C(=O)N[C@@H](CC(=O)O)C(=O)O)cc1OC(=O)c1ccc(NC(=N)N)cc1`: the IC50 was 710 nM on Enteropeptidase [1] and > 3300 nM on Enteropeptidase [2].

For `N=C(N)Nc1ccc2c(c1)CCCCOc1c(cccc1C(=O)N[C@@H](CC(=O)O)C(=O)O)OC2=O`, the IC50 at Enteropeptidase [1] came to 1.7 nM; at Enteropeptidase [2], 26 nM. For the same molecule, the T1/2 on Enteropeptidase [5] was > 2 h.

As for `Cc1c(OC(=O)c2ccc(NC(=N)N)cc2)cccc1C(=O)N[C@@H](CC(=O)O)C(=O)O`, the 50% inhibitory concentration (IC50) was 4.4 nM at Enteropeptidase [1] and 69 nM at Enteropeptidase [2].

For the molecule `N=C(N)Nc1ccc2c(c1)CCCCCc1c(cccc1C(=O)N[C@@H](CC(=O)O)C(=O)O)OC2=O`, the degraded at 24 h, 10 ug/ml came to 0.4% in series [15] and 0.6% in [16]. Also, the values for the half-inhibitory concentration (IC50) at Enteropeptidase [1] and at Enteropeptidase [2] were 2.9 nM and 96 nM, respectively. Besides, the T1/2 on Enteropeptidase [5] was > 2 h. For the same molecule, the “fold change (FC)” value in series [7] is 1.15.

As for `N=C(N)Nc1ccc2c(c1)CCCCc1c(cccc1C(=O)N[C@@H](CC(=O)O)C(=O)O)OC2=O`, the degraded at 24 h, 10 ug/ml in series [15] was 1.2%; in series [16], 3.4%. Moreover, the IC50 came out at 3.2 nM on Enteropeptidase [1] and 93 nM at Enteropeptidase [2]. For the same molecule, the T1/2 on Enteropeptidase [5] was > 2 h. The “fold change (FC)” value in [7] came to 1.13.
